Experimental data taken from ChEMBL document CHEMBL1141723, “Specific targeting of metzincin family members with small-molecule inhibitors: progress toward a multifarious challenge” (Bioorg Med Chem, 2008).
Calls of active or inactive are those of the source. The calls are words filed in the database; no cut-off is given here.

Columns and labels:
[1] = biological target: T1, Matrilysin (Homo sapiens) (UniProt P09237); test: Inhibition of MMP7 up to 60 uM
T1 sequence (whole entry): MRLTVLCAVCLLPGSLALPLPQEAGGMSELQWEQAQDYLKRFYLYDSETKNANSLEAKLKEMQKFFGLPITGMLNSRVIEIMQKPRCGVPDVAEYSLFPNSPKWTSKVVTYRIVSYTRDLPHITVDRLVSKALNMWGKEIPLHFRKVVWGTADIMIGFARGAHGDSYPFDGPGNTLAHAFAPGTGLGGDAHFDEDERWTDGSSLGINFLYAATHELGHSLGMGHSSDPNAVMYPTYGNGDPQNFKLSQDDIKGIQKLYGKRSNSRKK

[2] = biological target: T2, 72 kDa type IV collagenase (Homo sapiens, UniProt P08253)
Target sequence in this assay (P08253 whole entry): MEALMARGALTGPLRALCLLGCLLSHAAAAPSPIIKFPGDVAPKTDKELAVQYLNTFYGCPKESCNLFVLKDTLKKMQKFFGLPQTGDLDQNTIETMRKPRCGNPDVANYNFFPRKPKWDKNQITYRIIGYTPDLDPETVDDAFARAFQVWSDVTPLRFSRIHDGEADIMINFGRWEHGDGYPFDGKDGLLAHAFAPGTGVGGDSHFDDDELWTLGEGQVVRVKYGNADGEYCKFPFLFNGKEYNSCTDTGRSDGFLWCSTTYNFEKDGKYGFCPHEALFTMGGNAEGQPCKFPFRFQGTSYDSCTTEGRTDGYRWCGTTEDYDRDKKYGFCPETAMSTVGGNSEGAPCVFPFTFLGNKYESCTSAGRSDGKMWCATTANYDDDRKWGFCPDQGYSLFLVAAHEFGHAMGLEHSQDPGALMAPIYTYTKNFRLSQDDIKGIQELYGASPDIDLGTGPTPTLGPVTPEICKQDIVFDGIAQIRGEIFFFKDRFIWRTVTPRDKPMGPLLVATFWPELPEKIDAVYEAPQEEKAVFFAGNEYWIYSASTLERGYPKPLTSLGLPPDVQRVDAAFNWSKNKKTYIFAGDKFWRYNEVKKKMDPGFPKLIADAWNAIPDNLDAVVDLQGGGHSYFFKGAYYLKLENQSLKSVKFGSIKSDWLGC

[3] = biological target: T3, Matrix metalloproteinase-14 (Homo sapiens, UniProt P50281); test: Inhibition of MMP14
[4] = biological target: T4, Interstitial collagenase (Homo sapiens) (UniProt P03956); test: Inhibition of MMP1 up to 60 uM
T4 sequence (whole entry): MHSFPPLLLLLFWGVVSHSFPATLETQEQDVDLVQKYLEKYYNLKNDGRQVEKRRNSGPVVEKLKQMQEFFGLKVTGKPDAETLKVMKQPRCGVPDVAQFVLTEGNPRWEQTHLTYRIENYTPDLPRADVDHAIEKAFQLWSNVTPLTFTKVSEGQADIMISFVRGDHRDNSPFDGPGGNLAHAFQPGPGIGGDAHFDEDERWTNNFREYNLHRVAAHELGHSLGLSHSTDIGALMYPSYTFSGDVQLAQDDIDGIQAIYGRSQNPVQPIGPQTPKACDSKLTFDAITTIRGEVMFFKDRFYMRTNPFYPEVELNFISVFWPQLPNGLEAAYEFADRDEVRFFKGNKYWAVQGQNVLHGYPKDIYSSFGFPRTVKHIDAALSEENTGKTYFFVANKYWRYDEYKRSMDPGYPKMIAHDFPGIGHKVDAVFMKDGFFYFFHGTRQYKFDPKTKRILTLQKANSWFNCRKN

[5] = biological target: T5, Stromelysin-1 (Homo sapiens, UniProt P08254)
Target sequence in this assay (P08254 whole entry): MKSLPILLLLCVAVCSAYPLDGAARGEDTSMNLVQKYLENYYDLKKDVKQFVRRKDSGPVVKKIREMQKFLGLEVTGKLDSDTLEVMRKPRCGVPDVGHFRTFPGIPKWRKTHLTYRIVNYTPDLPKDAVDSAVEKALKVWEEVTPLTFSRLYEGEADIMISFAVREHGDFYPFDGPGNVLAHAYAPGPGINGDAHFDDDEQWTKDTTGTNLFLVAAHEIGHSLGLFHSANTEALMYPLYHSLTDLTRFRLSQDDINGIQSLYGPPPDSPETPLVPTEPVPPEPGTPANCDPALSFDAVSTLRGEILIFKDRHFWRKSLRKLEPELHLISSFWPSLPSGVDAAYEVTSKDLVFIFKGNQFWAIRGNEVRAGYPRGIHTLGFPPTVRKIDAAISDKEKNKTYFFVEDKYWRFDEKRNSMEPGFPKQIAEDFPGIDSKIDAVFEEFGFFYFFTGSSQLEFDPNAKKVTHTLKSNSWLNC

[6] = biological target: T6, Matrix metalloproteinase-9 (Homo sapiens, UniProt P14780); test: Inhibition of MMP9
T6 sequence (P14780 whole entry): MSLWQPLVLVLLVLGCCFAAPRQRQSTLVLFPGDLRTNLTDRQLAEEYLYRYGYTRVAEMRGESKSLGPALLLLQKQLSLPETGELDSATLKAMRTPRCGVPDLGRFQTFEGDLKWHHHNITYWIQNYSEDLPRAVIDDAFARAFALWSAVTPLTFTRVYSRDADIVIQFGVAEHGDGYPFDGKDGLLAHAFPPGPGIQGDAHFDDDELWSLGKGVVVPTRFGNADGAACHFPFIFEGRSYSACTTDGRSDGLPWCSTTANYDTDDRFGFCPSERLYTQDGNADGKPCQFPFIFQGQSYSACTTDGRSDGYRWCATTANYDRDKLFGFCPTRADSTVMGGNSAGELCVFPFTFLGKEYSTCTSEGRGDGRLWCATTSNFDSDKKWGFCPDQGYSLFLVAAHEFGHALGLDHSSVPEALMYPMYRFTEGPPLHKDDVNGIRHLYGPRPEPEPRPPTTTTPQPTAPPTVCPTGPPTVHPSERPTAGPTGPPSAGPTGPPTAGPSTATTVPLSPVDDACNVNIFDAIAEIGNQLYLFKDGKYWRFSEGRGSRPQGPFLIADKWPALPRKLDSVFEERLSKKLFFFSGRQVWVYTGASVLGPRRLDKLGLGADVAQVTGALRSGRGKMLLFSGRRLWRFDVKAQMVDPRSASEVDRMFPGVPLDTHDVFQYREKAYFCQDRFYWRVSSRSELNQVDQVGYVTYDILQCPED

[7] = biological target: T7, Interstitial collagenase (Homo sapiens, UniProt P03956)
T7 sequence (P03956 whole entry): T4 sequence (whole entry)

[8] = biological target: Collagenase 3 (Homo sapiens, UniProt P45452); test: Inhibition of MMP13
[9] = biological target: Bone morphogenetic protein 1 (Homo sapiens, UniProt P13497); test: Inhibition of BMP1
[10] = biological target: Disintegrin and metalloproteinase domain-containing protein 17 (Sus scrofa, UniProt O77636); test: Inhibition of pig TACE
[11] = biological target: T8, Stromelysin-2 (Homo sapiens, UniProt P09238); test: Inhibition of MMP10
Target sequence in this assay (P09238 whole entry, the tested form may be a part): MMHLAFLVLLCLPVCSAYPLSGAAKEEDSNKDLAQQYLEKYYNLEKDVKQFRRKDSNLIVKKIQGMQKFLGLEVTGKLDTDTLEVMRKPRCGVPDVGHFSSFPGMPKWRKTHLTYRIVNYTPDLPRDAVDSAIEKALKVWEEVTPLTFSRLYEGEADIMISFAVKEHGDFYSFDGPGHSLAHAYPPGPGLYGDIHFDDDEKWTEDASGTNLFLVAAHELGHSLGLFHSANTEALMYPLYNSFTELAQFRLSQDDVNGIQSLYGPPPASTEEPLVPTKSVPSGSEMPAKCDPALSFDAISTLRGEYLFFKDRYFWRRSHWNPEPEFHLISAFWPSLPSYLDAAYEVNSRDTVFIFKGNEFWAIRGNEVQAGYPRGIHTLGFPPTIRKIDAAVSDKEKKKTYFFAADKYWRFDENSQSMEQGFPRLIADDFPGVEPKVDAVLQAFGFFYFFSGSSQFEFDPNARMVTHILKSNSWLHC

[12] = biological target: T9, Disintegrin and metalloproteinase domain-containing protein 10 (Homo sapiens, UniProt O14672); test: Inhibition of ADAM10
T9 sequence (O14672 whole entry): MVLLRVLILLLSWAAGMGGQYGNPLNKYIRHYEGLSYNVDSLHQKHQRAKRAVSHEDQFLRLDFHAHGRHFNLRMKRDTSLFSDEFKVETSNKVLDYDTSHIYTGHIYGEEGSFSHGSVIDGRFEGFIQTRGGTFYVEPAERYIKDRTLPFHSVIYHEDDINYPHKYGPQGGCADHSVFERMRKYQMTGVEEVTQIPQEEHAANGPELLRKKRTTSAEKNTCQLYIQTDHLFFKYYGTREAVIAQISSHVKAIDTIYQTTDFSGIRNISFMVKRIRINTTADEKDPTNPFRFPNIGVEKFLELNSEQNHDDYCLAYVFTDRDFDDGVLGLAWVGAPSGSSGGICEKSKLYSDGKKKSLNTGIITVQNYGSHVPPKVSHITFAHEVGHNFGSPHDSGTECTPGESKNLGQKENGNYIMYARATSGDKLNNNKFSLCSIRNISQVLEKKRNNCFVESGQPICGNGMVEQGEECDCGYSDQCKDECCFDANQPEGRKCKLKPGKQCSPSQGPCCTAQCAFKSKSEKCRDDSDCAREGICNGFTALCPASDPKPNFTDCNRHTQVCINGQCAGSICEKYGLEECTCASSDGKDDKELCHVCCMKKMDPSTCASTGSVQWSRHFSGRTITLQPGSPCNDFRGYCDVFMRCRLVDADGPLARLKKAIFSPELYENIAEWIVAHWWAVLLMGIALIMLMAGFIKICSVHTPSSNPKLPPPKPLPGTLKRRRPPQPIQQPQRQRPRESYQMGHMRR

[13] = biological target: A disintegrin and metalloproteinase with thrombospondin motifs 1 (Homo sapiens, UniProt Q9UHI8); test: Inhibition of ADAMTS1
[14] = biological target: Matrix metalloproteinase-15 (Homo sapiens, UniProt P51511)
Sequence of Matrix metalloproteinase-15 (P51511 whole entry): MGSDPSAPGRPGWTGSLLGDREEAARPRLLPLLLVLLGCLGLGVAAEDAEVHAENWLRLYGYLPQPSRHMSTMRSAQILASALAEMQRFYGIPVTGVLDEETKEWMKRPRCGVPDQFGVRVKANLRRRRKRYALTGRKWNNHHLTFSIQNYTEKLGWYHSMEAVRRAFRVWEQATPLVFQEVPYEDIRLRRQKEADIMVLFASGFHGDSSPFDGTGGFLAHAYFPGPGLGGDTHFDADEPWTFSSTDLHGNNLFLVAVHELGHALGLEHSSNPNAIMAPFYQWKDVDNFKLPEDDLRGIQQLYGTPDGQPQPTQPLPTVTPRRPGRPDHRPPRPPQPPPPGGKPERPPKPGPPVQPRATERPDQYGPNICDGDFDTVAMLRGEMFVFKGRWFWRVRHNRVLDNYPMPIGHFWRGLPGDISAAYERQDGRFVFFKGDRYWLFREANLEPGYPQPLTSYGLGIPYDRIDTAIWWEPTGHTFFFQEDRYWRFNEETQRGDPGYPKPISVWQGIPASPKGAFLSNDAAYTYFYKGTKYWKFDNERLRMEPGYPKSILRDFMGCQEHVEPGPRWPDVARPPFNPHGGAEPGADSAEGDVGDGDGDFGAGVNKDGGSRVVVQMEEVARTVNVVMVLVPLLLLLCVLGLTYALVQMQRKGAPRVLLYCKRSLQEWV

[15] = biological target: A disintegrin and metalloproteinase with thrombospondin motifs 5 (Homo sapiens, UniProt Q9UNA0); test: Inhibition of ADAMTS5
[16] = biological target: T10, Neutrophil collagenase (Homo sapiens, UniProt P22894); test: Inhibition of MMP8
Target sequence in this assay (P22894 whole entry): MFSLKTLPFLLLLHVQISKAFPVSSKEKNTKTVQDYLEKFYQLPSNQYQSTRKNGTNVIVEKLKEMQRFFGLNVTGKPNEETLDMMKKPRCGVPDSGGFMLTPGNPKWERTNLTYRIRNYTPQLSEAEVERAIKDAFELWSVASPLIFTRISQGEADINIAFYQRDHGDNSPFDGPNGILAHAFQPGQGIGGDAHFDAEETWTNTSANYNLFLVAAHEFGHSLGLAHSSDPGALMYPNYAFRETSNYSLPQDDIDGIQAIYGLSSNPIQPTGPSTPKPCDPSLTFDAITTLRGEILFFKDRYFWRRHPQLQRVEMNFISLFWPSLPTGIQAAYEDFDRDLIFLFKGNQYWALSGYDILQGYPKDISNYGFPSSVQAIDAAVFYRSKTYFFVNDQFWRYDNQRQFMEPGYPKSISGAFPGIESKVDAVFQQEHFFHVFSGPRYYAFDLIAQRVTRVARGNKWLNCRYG

[17] = biological target: Neprilysin (Homo sapiens, UniProt P08473); test: Inhibition of NEP
[18] = biological target: Stromelysin-3 (Homo sapiens, UniProt P24347); test: Inhibition of MMP11
[19] = biological target: T11, Matrilysin (Homo sapiens, UniProt P09237)
T11 sequence (P09237 whole entry): T1 sequence (whole entry)

[20] = biological target: Disintegrin and metalloproteinase domain-containing protein 17 (Homo sapiens, UniProt P78536); test: Inhibition of TACE
[21] = biological target: Angiotensin-converting enzyme (Homo sapiens, UniProt P12821); test: Inhibition of ACE
[22] = biological target: T12, Macrophage metalloelastase (Homo sapiens, UniProt P39900); test: Inhibition of MMP12
Target sequence in this assay (P39900 whole entry): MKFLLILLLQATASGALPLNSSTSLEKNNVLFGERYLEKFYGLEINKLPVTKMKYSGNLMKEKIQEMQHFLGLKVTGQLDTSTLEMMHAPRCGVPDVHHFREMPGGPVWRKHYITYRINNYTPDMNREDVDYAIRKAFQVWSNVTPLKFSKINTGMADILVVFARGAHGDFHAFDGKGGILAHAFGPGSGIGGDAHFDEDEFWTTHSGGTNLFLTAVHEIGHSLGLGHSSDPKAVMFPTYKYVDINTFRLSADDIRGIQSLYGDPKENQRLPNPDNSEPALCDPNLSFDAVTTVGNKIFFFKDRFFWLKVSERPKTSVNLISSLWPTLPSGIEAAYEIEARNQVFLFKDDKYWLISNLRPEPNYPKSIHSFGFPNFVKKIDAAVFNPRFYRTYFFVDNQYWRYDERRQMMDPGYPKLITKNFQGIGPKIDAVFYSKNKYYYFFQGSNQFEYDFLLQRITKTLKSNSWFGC

[23] = biological target: T5, Stromelysin-1; test: Inhibition of MMP3 up to 100 uM
[24] = biological target: T3, Matrix metalloproteinase-14; test: Inhibition of MMP14 up to 100 uM
[25] = biological target: T10, Neutrophil collagenase; test: Inhibition of MMP8 up to 100 uM
Target sequence in this assay (P22894 101-467 limits assumed): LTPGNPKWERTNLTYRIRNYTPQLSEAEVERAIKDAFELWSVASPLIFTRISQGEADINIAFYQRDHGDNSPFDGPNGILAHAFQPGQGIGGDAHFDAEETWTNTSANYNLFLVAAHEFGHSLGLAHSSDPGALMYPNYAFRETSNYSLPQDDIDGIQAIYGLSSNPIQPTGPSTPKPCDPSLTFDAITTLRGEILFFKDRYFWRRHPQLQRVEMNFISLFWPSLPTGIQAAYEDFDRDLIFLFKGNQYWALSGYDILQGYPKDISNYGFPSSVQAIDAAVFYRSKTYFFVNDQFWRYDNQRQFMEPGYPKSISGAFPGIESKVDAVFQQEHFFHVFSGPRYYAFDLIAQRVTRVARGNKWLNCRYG

[26] = biological target: T13, Matrix metalloproteinase-16 (Homo sapiens, UniProt P51512); test: Inhibition of MMP16 up to 100 uM
T13 sequence (P51512 whole entry): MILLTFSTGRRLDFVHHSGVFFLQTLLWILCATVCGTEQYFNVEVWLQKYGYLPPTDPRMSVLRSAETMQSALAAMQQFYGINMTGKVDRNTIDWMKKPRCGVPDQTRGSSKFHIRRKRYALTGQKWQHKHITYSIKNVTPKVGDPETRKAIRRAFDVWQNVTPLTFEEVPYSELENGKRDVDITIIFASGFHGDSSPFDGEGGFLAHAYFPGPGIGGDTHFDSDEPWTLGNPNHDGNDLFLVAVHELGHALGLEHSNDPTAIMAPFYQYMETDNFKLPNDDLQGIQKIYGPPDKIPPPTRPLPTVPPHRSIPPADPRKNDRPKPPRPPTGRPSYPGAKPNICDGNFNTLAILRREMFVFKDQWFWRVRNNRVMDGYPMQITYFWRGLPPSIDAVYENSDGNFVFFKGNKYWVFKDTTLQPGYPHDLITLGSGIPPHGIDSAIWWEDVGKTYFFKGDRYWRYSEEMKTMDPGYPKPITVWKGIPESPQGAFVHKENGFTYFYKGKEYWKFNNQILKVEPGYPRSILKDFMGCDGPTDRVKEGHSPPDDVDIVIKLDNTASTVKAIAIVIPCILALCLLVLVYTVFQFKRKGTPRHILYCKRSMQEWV

[27] = biological target: T1, Matrilysin (Homo sapiens); test: Inhibition of MMP7 up to 100 uM
[28] = biological target: T2, 72 kDa type IV collagenase; test: Inhibition of MMP2 up to 100 uM
[29] = biological target: T12, Macrophage metalloelastase; test: Inhibition of MMP12 up to 100 uM
[30] = biological target: T6, Matrix metalloproteinase-9; test: Inhibition of MMP9 up to 100 uM
[31] = biological target: T8, Stromelysin-2; test: Inhibition of MMP10 up to 100 uM
[32] = biological target: T4, Interstitial collagenase (Homo sapiens); test: Inhibition of MMP1 at 100 uM
[33] = Selectivity for pig TACE over MMP9
[34] = Selectivity for pig TACE over MMP8
[35] = Selectivity for pig TACE over MMP7
[36] = Selectivity for pig TACE over MMP3
[37] = biological target: T13, Matrix metalloproteinase-16; test: Inhibition of MMP16
[38] = Selectivity for pig TACE over MMP2
[39] = Selectivity for pig TACE over MMP1

In the case of `O=S(=O)(CCC(S)CS)c1ccc(Oc2ccccc2)cc1` (centres undefined), the Activity [1] is reported as “inactive”, the Ki [2] is reported as 46 nM and the Ki [3] is reported as 210 nM. The Activity [4] was “inactive”, the Ki [5] was 10000 nM and the Ki [6] was 100 nM.

With `CS(=O)(=O)NCc1noc([C@H](CCCC2CCCCC2)CC(=O)NO)n1` the Ki [3] was greater than 100000 nM, the Ki [5] was greater than 100000 nM and the Ki [6] was greater than 100000 nM. It also gave a Ki [7] of 1 nM, a Ki [8] of 91000 nM and a Ki [9] of 11 nM.

`Cc1cc(COc2ccc(C(=O)N[C@@]3(CC(=O)NO)C[C@@H](C)N[C@@H](C)C3)cc2)c2ccccc2n1` showed a Ki [10] of 2.8 nM, a Ki [11] of 1650 nM and a Ki [12] greater than 3000 nM. The Ki [13] was 7800 nM, the Ki [14] was 1700 nM and the Ki [2] was greater than 3000 nM. For the same compound, the Ki [3] was 163 nM, the Ki [5] was 762 nM and the Ki [15] was 1900 nM. It also gave a Ki [6] greater than 3000 nM, a Ki [7] greater than 5000 nM and a Ki [8] greater than 5000 nM. It also gave a Ki [16] of 2050 nM.

Compound `NC(=O)[C@H](CCC(=O)O)NC(=O)[C@H](CCC(=O)O)NC(=O)[C@H](Cc1cc(-c2ccc(-c3cccc(Cl)c3)cc2)no1)CP(=O)(O)c1ccc(Br)cc1` has a Ki [17] greater than 100000 nM, a Ki [18] of 18400 nM and a Ki [2] of 192 nM. It also gave a Ki [19] of 626 nM, a Ki [3] of 140 nM and a Ki [5] of 40 nM. It also gave a Ki [20] greater than 100000 nM, a Ki [6] of 1260 nM and a Ki [7] of 67000 nM. For the same compound, the Ki [8] was 49 nM, the Ki [16] was 271 nM and the Ki [21] was greater than 100000 nM. It also gave a Ki [22] of 0.19 nM.

In the case of `O=C(NCc1cccnc1)c1cc(C(=O)NCc2cccnc2)ncn1`, the Activity [23] is reported as “inactive”, the Activity [24] is reported as “inactive” and the Activity [25] is reported as “inactive”. For the same compound, the Activity [26] was “inactive”, the Activity [27] was “inactive” and the Activity [28] was “inactive”. The Activity [29] was “inactive”, the Activity [30] was “inactive” and the Activity [31] was “inactive”. For the same compound, the Activity [32] was “inactive”.

`O=C1NCCCC[C@@H](C(=O)NCC(=O)N2CCOCC2)NC(=O)[C@H](Cc2ccc(-c3ccccc3C(F)(F)F)cc2)[C@@H](C(=O)NO)CCCO1` gave a fold change (FC) [33] greater than 100, a Ki [11] greater than 2000 nM and a fold change (FC) [34] of 45. The fold change (FC) [35] was greater than 100, the fold change (FC) [36] was greater than 100 and the Ki [14] was greater than 2000 nM. For the same compound, the Ki [37] was greater than 2000 nM, the Ki [2] was greater than 2000 nM and the fold change (FC) [38] was greater than 100. It also gave a Ki [3] greater than 2000 nM, a Ki [5] greater than 2000 nM and a Ki [6] greater than 2000 nM. The Ki [7] was greater than 2000 nM, the Ki [16] was 200 nM and the fold change (FC) [39] was greater than 100. It also gave a Ki [22] greater than 2000 nM.
